Test systems include RPMI-8226 leukemia; ACHN renal; PC-3 prostate; RXF 393 renal; OVCAR-5 ovarian; SR leukemia; HCT-15 colon; HT29 colon; HOP-92 NSCLC; 786-0 renal.
Common to all, as to experiment: DTP human tumour cell line panel, 48 h

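Cells were grown in 96-well plates and exposed to each compound for 48 hours at five concentrations; endpoints were interpolated linearly between bracketing concentrations, or set to the highest concentration if not reached. The concentration for 50% growth inhibition is given as GI50. Definition used: TGI = concentration required for complete inhibition of growth.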 Some results are limits rather than exact numbers.

As usually defined, the GI50 is the concentration giving 50% growth inhibition. By TGI is commonly meant the concentration at which net growth stops. Lower therefore signals more potent growth arrest. On to `O=C(CN1CCN(c2cc3c(cc2F)c(=O)c(C(=O)O)cn3C2CC2)CC1)Nc1ccc(C(=O)/C=C/c2ccccc2)cc1`, for which the GI50 in the assay with RPMI-8226 leukemia was 2.52 µM; in the assay with ACHN renal it was 3.3 µM; with PC-3 prostate it was 3.16 µM; in the assay on RXF 393 renal, 2.5 µM; in the assay on OVCAR-5 ovarian, 5.35 µM; in the assay with SR leukemia it was 1.54 µM. For the same molecule, the GI50 in the assay with HCT-15 colon was 3.68 µM; in the assay on HT29 colon, 2.99 µM; in the assay on HOP-92 NSCLC it was 0.431 µM; with 786-0 renal, 4.5 µM. The TGI in the assay with RPMI-8226 leukemia is 6.73 µM; in the assay with ACHN renal it was 31.9 µM; with PC-3 prostate it was > 100 µM; in the assay with RXF 393 renal, > 100 µM; in the assay on OVCAR-5 ovarian, > 100 µM; in the assay with SR leukemia, 6.1 µM. For the same molecule, the TGI is > 100 µM in the assay with HCT-15 colon, 10.3 µM in the assay with HT29 colon, 3.82 µM in the assay with HOP-92 NSCLC and > 100 µM in the assay on 786-0 renal.

For the origin of these results see PubChem BioAssay (NCI).
